Reference: ChEMBL document CHEMBL5360657, “Discovery of the TLR7/8 Antagonist MHV370 for Treatment of Systemic Autoimmune Diseases” (ACS Med Chem Lett, 2023)
≈ marks a conversion by molar mass, not a printed value.

What was measured:
Toll-like receptor 9 = biological target: T1, Toll-like receptor 9 (Homo sapiens, UniProt Q9NR96); assay: Antagonist activity at TLR9 in human PBMC cells assessed as reduction in IFN alpha measured after 20 hrs by AlphaLISA assay; format: cell-based
T1 sequence (Q9NR96 whole entry): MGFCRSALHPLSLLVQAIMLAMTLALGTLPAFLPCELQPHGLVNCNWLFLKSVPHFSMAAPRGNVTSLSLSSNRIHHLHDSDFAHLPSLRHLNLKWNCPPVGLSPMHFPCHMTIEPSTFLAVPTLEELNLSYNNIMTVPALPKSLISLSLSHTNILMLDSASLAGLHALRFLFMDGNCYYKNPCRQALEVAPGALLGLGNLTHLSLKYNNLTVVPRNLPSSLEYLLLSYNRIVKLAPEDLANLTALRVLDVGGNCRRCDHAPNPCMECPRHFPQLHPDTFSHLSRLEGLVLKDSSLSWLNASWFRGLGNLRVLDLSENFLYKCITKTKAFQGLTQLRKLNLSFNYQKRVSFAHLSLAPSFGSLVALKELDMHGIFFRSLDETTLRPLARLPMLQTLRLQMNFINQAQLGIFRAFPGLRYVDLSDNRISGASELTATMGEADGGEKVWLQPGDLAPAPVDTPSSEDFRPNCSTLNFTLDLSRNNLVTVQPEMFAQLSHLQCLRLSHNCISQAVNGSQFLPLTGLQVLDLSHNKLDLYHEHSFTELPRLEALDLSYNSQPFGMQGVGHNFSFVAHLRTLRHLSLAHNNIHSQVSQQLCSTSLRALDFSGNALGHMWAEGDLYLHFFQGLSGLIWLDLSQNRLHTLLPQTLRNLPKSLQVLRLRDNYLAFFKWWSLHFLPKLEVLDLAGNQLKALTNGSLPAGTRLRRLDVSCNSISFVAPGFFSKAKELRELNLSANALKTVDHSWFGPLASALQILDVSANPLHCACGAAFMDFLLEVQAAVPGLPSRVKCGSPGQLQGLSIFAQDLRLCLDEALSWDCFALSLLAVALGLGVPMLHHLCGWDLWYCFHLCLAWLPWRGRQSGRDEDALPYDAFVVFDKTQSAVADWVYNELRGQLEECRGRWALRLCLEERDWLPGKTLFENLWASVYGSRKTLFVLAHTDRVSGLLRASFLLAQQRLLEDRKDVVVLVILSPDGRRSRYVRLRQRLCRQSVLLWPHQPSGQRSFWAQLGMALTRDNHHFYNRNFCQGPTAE

[1] = biological target: Voltage-gated inwardly rectifying potassium channel KCNH2 (Homo sapiens, UniProt Q12809); assay: Displacement of [3H]-dofetilite from human ERG (unknown origin); format: toxicity
Sequence of Voltage-gated inwardly rectifying potassium channel KCNH2 (Q12809 whole entry): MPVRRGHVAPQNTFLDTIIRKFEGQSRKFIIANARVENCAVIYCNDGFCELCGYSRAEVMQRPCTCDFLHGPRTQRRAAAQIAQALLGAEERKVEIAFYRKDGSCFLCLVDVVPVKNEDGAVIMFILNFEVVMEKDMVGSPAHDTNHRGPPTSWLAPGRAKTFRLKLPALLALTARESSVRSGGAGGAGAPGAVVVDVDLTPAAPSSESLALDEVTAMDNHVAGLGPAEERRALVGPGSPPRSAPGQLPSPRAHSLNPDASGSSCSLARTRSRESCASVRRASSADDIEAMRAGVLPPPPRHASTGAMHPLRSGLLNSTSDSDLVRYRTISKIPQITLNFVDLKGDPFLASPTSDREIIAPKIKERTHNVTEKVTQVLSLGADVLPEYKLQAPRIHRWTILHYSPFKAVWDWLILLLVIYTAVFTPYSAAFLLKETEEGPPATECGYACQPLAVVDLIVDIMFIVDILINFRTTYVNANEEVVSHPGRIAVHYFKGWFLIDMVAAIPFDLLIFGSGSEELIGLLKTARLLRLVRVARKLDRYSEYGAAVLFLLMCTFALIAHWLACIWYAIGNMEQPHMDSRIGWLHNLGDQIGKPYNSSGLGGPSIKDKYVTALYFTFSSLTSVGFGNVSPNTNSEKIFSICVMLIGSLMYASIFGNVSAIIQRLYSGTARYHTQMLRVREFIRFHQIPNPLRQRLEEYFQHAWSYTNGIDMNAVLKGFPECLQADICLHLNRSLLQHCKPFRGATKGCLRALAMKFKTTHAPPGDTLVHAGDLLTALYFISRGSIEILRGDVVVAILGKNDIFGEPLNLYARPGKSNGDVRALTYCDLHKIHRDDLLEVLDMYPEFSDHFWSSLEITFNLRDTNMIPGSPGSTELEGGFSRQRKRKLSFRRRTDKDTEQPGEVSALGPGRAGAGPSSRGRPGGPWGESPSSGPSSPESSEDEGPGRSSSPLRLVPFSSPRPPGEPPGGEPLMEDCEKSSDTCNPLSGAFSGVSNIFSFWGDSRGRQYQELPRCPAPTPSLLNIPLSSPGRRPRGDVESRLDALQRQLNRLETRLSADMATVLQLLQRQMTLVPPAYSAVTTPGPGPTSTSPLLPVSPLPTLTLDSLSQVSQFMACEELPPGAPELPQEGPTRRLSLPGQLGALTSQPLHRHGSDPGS

[2] = Metabolic stability in mouse liver microsomes assessed as intrinsic clearance; format: ADME, Microsome; settings: read-out: CLH
[3] = Permeability of the compound by PAMPA; format: ADME
[4] = Solubility of the compound; format: physicochemical
Cytochrome P450 3A4 [5] = biological target: T2, Cytochrome P450 3A4 (Homo sapiens, UniProt P08684); assay: Time dependent inhibition of CYP3A4 (unknown origin) assessed as Kobs; format: ADME
T2 sequence (P08684 whole entry): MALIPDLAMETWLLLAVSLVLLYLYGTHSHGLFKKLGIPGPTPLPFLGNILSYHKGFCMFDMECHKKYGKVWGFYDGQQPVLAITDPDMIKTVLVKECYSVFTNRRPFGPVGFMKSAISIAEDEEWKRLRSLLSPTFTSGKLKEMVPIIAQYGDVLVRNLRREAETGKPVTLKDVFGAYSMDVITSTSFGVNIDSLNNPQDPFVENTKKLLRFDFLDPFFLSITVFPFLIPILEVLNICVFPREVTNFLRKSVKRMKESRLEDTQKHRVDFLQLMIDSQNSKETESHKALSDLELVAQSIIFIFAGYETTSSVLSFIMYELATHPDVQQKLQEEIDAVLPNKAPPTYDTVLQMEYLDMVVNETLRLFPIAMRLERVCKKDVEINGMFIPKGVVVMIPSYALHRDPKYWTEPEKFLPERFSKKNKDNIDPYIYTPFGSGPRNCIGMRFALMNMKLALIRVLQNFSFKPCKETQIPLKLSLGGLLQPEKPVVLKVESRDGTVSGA

[6] = Metabolic stability in human liver microsomes assessed as intrinsic clearance; format: ADME, Microsome; settings: read-out: CLH
Toll-like receptor 7 = biological target: T3, Toll-like receptor 7 (Homo sapiens, UniProt Q9NYK1); assay: Antagonist activity at TLR7 in human PBMC cells assessed as reduction in IFN alpha measured after 20 hrs by AlphaLISA assay; format: cell-based
T3 sequence (Q9NYK1 whole entry): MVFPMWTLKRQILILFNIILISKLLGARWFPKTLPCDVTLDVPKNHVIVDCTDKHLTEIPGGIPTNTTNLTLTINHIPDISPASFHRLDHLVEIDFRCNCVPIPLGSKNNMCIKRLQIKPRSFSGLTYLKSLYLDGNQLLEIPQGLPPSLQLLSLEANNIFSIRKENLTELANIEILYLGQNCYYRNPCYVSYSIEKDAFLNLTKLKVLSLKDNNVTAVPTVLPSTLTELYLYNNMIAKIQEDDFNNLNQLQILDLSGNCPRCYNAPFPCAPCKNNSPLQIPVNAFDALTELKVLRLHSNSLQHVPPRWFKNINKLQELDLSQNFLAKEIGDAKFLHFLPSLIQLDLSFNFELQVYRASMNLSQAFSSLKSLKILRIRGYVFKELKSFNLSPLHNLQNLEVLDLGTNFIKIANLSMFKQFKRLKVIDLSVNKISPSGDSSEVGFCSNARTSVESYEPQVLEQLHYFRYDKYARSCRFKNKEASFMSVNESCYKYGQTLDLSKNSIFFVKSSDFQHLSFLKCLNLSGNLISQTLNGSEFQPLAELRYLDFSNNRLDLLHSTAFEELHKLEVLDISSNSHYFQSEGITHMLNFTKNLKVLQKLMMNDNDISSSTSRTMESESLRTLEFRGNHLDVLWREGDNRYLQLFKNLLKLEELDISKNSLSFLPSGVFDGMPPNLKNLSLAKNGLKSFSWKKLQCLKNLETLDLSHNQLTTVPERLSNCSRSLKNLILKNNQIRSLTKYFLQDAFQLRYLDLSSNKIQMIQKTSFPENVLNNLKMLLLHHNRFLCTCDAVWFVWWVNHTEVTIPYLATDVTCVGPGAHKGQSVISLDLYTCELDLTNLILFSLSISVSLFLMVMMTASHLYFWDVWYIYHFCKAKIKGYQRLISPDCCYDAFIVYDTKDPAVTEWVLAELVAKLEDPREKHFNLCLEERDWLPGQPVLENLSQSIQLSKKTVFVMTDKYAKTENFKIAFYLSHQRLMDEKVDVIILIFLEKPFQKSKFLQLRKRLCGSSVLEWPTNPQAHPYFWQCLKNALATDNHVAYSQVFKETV

Toll-like receptor 8 = biological target: T4, Toll-like receptor 8 (Homo sapiens, UniProt Q9NR97); assay: Antagonist activity at TLR8 in human PBMC cells […] assessed as reduction in IL-6 level measured after 20 hrs by AlphaLISA assay; format: cell-based
T4 sequence (Q9NR97 whole entry): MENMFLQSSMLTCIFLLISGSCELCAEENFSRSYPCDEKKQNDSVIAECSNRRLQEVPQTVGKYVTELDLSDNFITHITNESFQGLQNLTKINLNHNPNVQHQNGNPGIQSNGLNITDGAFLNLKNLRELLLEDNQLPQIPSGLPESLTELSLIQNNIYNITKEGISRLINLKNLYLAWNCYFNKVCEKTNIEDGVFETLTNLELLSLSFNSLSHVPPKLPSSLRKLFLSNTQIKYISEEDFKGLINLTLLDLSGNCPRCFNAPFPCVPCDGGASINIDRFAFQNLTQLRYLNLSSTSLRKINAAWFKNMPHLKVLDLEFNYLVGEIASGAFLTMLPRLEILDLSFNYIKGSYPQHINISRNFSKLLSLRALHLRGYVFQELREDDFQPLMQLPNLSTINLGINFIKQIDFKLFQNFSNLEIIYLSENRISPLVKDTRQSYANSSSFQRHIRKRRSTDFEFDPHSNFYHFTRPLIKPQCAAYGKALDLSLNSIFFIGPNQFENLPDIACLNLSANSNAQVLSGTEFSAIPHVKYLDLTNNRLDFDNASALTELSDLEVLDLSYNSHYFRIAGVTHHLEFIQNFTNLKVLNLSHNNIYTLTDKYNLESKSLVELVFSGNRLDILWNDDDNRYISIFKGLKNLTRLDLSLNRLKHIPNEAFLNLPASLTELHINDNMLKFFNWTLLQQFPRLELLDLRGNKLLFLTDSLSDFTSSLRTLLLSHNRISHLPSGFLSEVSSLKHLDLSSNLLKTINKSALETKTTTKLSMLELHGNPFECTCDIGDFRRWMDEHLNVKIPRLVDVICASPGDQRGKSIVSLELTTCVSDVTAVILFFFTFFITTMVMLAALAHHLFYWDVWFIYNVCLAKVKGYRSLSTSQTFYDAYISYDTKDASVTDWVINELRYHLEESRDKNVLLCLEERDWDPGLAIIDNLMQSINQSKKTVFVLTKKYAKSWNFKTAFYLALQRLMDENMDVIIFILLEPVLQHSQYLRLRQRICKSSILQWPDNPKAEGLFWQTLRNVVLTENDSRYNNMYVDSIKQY

[7] = Metabolic stability in rat liver microsomes assessed as intrinsic clearance; format: ADME, Microsome; settings: read-out: CLH
Cytochrome P450 3A4 [8] = biological target: T2, Cytochrome P450 3A4; assay: Inhibition of CYP3A4 (unknown origin); format: ADME
[9] = MRT in mouse at 1 mg/ml, po or iv; format: ADME, organism-based; settings: in vivo
[10] = AUC in rat at 1 mg/ml, po; format: ADME; parameters: dose 1 mg/ml, route po; settings: in vivo
[11] = AUC in mouse at 1 mg/ml, po; format: ADME; parameters: dose 1 mg/ml, route po; settings: in vivo
[12] = Cmax in rat at 1 mg/ml, po; format: ADME; parameters: dose 1 mg/ml, route po; settings: in vivo
[13] = Volume of distribution at steady state in mouse at 1 mg/ml, po or iv; format: ADME, organism-based; settings: in vivo
[14] = AUC in mouse at 1 mg/ml, iv; format: ADME; parameters: dose 1 mg/ml, route iv; settings: in vivo
[15] = Oral bioavailability in rat at 1 mg/ml; format: ADME, organism-based; settings: in vivo
[16] = Oral bioavailability in mouse at 1 mg/ml; format: ADME, organism-based; settings: in vivo
[17] = Cmax in mouse at 1 mg/ml, po; format: ADME; parameters: dose 1 mg/ml, route po; settings: in vivo
[18] = MRT in rat at 1 mg/ml, po or iv; format: ADME, organism-based; settings: in vivo
[19] = AUC in rat at 1 mg/ml, iv; format: ADME; parameters: dose 1 mg/ml, route iv; settings: in vivo
[20] = Volume of distribution at steady state in rat at 1 mg/ml, po or iv; format: ADME, organism-based; settings: in vivo

| Compound | IC50 (Toll-like receptor 9) [nM] | IC50 [1] [nM] | microsomal CLint [2] [µL/min/mg] | log(permeability) [3] | solubility [4] [µM] | Kobs (Cytochrome P450 3A4 [5]) [min⁻¹] | microsomal CLint [6] [µL/min/mg] | IC50 (Toll-like receptor 7) [nM] | IC50 (Toll-like receptor 8) [nM] | microsomal CLint [7] [µL/min/mg] | IC50 (Cytochrome P450 3A4 [8]) [nM] | also measured |
| --- | --- | --- | --- | --- | --- | --- | --- | --- | --- | --- | --- | --- |
| Cc1cc(N2CCc3c(c(C)nn3CC34CCC(NC5COC5)(CC3)CC4)C2)c2cnn(C)c2n1 | 970 | > 30000 | 60 | -4.5 | > 175 | 0.009 | 57 | 30 | 180 | 67 | 33000 |  |
| CNC12CCC(Cn3nc(C)c4c3CCN(c3cc(C)nc5c3cnn5C)C4)(CC1)CC2 | 440 | > 30000 | 28 | -5.3 | > 175 | 0.008 | < 15 | 7 | 330 | < 15 | > 50000 |  |
| Cc1cc(N2CCc3c(c(C)nn3CC34CCC(N5C[C@@H](C)O[C@@H](C)C5)(CC3)CC4)C2)c2cnn(C)c2n1 | 1500 | > 30000 | 440 | -3.9 | > 175 | 0.031 | 130 | 10 | 20 | 55 | > 50000 |  |
| CN[C@@H](C)C(=O)NC12CCC(Cn3nc(C)c4c3CCN(c3cc(C)nc5c3cnn5C)C4)(CC1)CC2 | 700 | > 30000 | 42 | -5.3 |  | 0.022 | < 15 |  | 190 | 34 | > 50000 | MRT [9]: 1.6 h; AUC [10]: 0.483 µM·h; AUC [11]: 2.34 µM·h; Cmax [12]: 31 nM; Vdss [13]: 3.5 L/kg; AUC [14]: 1.79 µM·h; bioavailability [15]: 9%; bioavailability [16]: 26%; Cmax [17]: 237 nM; MRT [18]: 1.6 h; AUC [19]: 1.78 µM·h; Vdss [20]: 2 L/kg |
| Cc1cc(N2CCc3c(c(C)nn3CC34CCC(NC5CCC5)(CC3)CC4)C2)c2cnn(C)c2n1 | 550 | 25000 | 77 | -4.2 | > 175 | 0.037 | 52 |  | 71 | 28 | 28000 |  |
| COCCNC12CCC(Cn3nc(C)c4c3CCN(c3cc(C)nc5c3cnn5C)C4)(CC1)CC2 | 350 | 22000 | < 15 | -4.8 | > 175 |  | 27 | 10 | 50 | < 15 |  |  |
| Cc1cc(N2CCc3c(c(C)nn3CC34CCC(N(C)C)(CC3)CC4)C2)c2cnn(C)c2n1 | 710 | > 30000 | 33 | -4.6 | > 175 | 0.032 | 34 | 9 | 160 | 36 | > 50000 |  |
| Cc1cc(N2CCc3c(c(C)nn3CC34CCC(NS(C)(=O)=O)(CC3)CC4)C2)c2cnn(C)c2n1 | > 10000 | > 30000 |  | -4.8 | 120 (≈ 59.7 µg/mL) | 0.021 | 107 | 8 | > 10000 | 78 | > 50000 |  |
| Cc1cc(N2CCc3c(c(C)nn3CC34CCC(N5CCCC5)(CC3)CC4)C2)c2cnn(C)c2n1 | 350 | 11000 | 24 | -4.7 | > 175 | 0.022 | 62 |  | 85 | 55 | 18000 |  |
